This passage reports IC50 results from ChEMBL document CHEMBL4480381, “Origin and bioactivities of thiosulfinated FK228” (Medchemcomm, 2019).

This experiment deals with Histone deacetylase 4 (Homo sapiens, UniProt P56524). As to the kind of experiment: Inhibition of human recombinant C-terminal GST-tagged HDAC4 (101 to 1084 residues) expressed in baculovirus infected Sf9 insect cells after 1 hr by HDAC-Glo1/2 luminescent assay.

Structures are written as SMILES.

Histone deacetylase 4, sequence (P56524 whole entry, the tested form may be a part): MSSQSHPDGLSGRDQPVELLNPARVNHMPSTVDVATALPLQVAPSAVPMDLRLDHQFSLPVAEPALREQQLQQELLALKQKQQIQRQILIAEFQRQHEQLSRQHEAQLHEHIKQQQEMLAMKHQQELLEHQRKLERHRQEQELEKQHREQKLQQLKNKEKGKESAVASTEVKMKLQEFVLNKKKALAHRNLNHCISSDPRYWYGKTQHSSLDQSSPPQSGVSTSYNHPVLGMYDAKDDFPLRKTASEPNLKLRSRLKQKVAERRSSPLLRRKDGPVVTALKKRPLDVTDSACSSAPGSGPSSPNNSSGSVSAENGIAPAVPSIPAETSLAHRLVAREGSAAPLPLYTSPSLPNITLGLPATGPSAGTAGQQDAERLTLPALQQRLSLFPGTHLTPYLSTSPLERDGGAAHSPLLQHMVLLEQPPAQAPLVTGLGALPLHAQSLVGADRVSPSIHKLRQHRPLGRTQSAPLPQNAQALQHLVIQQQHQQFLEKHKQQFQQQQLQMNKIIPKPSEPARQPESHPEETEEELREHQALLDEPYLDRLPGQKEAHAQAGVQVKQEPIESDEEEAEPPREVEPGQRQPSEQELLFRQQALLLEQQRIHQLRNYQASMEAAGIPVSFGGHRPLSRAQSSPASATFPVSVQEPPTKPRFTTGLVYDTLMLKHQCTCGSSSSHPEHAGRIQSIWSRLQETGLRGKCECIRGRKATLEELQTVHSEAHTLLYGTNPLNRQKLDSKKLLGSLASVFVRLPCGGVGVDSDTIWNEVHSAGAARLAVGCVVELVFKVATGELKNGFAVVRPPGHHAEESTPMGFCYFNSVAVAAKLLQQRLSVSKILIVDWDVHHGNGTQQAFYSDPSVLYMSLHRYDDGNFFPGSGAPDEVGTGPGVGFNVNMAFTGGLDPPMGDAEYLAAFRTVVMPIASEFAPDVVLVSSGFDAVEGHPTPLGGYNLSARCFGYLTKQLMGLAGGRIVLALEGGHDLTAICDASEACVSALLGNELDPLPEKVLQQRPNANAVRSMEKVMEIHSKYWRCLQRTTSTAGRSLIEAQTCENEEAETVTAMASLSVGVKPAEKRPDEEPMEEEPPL

Regarding `C/C=C1\NC(=O)[C@H]2CSSCC/C=C/[C@H](CC(=O)N[C@H](C(C)C)C(=O)N2)OC(=O)[C@H](C(C)C)NC1=O` [ROMIDEPSIN], the half-maximal inhibitory concentration (IC50) was found to be 4.46 µM.

Broadly, the IC50 is the concentration that gives 50% inhibition.
